Assay results: US20180037574A1, “COMPOUND, COMPOSITION, ORGANIC ELECTROLUMINESCENCE ELEMENT, AND ELECTRONIC DEVICE” (IDEMITSU KOSAN CO., LTD., priority 2015, published 2018)

Assay: Dissolution of host and dopant materials in toluene solution (visual check)
Assay type: physicochemical
Settings: 1.6-mass % toluene solution, host:dopant D-1 90:10 by mass, dissolved using ultrasonic waves, visually checked
Description: The compound H-1 obtained in Synthesis Example 1 was used as a host material and the compound D-1 was used as a dopant material at a mixture ratio by mass of the compound H-1:the compound D-1 being 90:10 to prepare a 1.6-mass % toluene solution. The materials were dissolved using ultrasonic waves. […] The toluene solution was coated on the base substrate by spin coating to form a 50-nm thick film. After the film formation, an unnecessary portion was removed with toluene from the film. Subsequently, the film was heated and dried on a hot plate heated at 150 degrees C. to manufacture a coated laminate substrate on which an emitting layer was formed. It should be noted that all the operations for forming the emitting layer were conducted in a nitrogen-atmosphere glove box.
In Comparative 1, manufacturing of an organic EL device was attempted in the same manner as in Example 1 except that a comparative compound H-a was used in place of the compound H-1 as the host material. However, the materials were not dissolved in the toluene solution but whitened to be unable to prepare a solution, so that an organic EL device was not manufactured.

solubility in toluene solution: not dissolved
Compound: c1ccc(-c2ccc(-c3nc(-n4c5ccccc5c5cc(-n6c7ccccc7c7ccccc76)ccc54)nc(-n4c5ccccc5c5cc(-n6c7ccccc7c7ccccc76)ccc54)n3)cc2)cc1 [H-a]
